In one series the target is kappa opioid receptor (Homo sapiens, UniProt P41145). Description: Opioid receptor binding at 10 μM. The conditions noted are these: at a concentration of 10 μM.
In the next series the target is mu opioid receptor (Homo sapiens, UniProt P35372). Description: Opioid receptor binding at 10 μM. The following applies: at a concentration of 10 μM.
For another series, the system named is C57BL/6J mice. Kind of series: Locomotor activity, basal and oxycodone-induced, open-field chambers.
A further series concerns Long-Evans rats. Description: Oxycodone-induced conditioned place preference. Type of series: in vivo, rat.
In the next series the target is delta opioid receptor (Homo sapiens, UniProt P41143). Description: Opioid receptor binding at 10 μM. The conditions noted are these: at a concentration of 10 μM.
Chain of delta opioid receptor (P41143 whole entry): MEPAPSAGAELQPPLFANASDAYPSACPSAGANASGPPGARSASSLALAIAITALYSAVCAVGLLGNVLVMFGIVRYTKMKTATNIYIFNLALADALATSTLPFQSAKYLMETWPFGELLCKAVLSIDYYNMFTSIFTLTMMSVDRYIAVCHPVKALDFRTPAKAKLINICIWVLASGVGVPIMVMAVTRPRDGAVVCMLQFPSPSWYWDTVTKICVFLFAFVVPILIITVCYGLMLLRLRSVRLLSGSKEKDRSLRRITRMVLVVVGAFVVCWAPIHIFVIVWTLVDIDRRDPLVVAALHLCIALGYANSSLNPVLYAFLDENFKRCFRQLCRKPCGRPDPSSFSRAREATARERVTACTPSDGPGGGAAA
The target in a further series is T1, 5HT1A (Homo sapiens, UniProt P08908).
T1 sequence (P08908 1-422): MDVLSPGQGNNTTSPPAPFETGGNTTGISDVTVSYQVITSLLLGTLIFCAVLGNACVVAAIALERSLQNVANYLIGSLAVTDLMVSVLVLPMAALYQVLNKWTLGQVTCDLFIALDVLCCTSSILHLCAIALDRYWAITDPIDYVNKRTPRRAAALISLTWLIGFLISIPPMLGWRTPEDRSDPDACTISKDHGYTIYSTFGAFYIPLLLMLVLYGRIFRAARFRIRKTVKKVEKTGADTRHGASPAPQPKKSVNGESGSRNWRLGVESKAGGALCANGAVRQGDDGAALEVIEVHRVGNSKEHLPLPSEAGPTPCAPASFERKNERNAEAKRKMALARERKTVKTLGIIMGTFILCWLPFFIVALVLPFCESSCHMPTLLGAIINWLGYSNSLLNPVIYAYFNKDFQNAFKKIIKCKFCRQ
Kind of series: 5HT1A [35S]GTPγS binding functional assay. Type of series: biochemical.

In the next series the target is D2R. The following applies: read-out: D2R Ki; eticlopride; cited from earlier work.
In another series the test system is dogs. The following applies: cited from earlier work.
For series [1] the following is noted: cited from earlier work.
A further series addresses T2, human D4.4R (Homo sapiens, UniProt P21917).
T2 sequence (P21917 1-419): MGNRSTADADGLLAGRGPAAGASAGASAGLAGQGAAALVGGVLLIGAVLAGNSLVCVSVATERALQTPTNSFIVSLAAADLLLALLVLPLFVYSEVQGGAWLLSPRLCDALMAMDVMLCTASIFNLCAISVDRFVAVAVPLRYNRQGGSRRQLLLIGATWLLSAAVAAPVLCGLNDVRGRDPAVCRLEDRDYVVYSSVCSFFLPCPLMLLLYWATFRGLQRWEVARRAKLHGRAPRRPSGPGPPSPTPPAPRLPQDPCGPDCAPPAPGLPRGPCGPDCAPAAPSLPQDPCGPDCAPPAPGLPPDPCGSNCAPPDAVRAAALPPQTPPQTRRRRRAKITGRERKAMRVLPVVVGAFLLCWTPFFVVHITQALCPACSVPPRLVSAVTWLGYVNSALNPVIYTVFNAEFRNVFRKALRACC
It is filed as binding. The conditions noted are these: read-out: D4.4R Ki ± S.E.M.; full-length analogues, Table 2; HEK 293.

Another series concerns the target human D3R (Homo sapiens, UniProt P35462). Type of series: binding. The following applies: Table 2.
A further series deals with human D2LR (Homo sapiens, UniProt P14416). Type of series: binding. The following applies: read-out: D2LR Ki ± S.E.M.; full-length analogues, Table 2; HEK 293.
Chain of human D2LR (P14416 whole entry): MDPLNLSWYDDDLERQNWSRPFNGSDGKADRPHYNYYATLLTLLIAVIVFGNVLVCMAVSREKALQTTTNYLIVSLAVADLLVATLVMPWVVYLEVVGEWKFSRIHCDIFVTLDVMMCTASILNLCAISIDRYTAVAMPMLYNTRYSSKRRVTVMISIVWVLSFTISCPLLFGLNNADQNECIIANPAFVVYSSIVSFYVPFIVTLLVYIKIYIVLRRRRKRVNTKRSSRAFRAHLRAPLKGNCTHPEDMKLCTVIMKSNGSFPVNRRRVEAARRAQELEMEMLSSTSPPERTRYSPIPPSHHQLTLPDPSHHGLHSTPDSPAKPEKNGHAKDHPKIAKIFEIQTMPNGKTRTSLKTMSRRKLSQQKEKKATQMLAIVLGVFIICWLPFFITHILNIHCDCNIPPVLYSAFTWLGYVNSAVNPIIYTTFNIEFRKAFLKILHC

“Also recorded” adds a separate entry of the source.

Chain of human D3R (P35462 whole entry): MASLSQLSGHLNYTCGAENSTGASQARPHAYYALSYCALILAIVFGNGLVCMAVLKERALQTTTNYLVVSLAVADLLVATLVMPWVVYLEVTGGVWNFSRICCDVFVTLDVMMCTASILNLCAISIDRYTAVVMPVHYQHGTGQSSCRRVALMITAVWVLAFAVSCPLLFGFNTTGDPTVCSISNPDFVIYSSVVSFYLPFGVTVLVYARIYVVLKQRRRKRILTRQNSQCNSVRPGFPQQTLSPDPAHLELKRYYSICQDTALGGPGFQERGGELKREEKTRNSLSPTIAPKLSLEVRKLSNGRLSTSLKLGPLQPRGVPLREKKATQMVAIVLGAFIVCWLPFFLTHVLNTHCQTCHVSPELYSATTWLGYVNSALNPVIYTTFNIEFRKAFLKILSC
Chain of mu opioid receptor (P35372 whole entry): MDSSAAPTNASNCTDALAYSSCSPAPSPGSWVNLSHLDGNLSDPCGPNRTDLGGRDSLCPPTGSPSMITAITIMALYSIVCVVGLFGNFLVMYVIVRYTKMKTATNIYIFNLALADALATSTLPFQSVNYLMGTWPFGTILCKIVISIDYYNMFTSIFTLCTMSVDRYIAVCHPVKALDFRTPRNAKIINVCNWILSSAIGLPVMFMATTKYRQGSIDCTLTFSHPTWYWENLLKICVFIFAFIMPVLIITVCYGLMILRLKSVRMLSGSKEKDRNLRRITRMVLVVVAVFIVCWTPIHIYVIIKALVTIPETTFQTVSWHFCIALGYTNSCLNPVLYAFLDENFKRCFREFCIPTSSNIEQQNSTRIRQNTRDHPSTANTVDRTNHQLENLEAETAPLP
Chain of kappa opioid receptor (P41145 whole entry): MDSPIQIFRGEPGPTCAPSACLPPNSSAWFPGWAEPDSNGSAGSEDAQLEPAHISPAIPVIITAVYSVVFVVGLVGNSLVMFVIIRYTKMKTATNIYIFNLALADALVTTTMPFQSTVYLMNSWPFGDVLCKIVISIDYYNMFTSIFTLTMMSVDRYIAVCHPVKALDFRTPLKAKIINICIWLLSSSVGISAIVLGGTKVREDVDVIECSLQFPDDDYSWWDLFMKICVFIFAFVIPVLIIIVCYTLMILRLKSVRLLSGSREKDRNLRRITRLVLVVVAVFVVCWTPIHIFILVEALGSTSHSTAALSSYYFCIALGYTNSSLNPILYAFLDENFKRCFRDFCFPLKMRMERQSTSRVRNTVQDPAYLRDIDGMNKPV

As for `CCc1cc(Cl)c(OC)c(N2CCN(CC(O)CCNC(=O)c3cc4ccccc4[nH]3)CC2)c1` (stereo not shown) [Compound 19, N-(4-(4-(3-Chloro-5-ethyl-2-methoxyphenyl)piperazin-1-yl)-3-hydroxybutyl)-1H-indole-2-carboxamide], the “binding to kappa opioid receptor” value on kappa opioid receptor is given as “does not bind”. Also, at mu opioid receptor, the “binding to mu opioid receptor” value is “does not bind”. Also, in the series on C57BL/6J mice (mice, 5, 15 mg/kg i.p. 15 min before oxycodone 4 mg/kg, day 2), the “effect on acute oxycodone-induced hyperactivity” value is reported as “attenuated; also recorded: dose-dependently inhibited”. In the series on C57BL/6J mice (mice, 5, 15 mg/kg i.p. alone, day 1), the “effect on basal locomotor activity” value was “no effect on locomotion”. In the series on C57BL/6J mice (mice, 5, 15 mg/kg i.p. daily before oxycodone 4 mg/kg, day 2-day 6), the “effect on acquisition of repeated oxycodone-induced locomotor sensitization” value is listed as “dose-dependently blocked”. In addition, in the series on C57BL/6J mice (mice, day 9, oxycodone 4 mg/kg challenge without pretreatment), the “effect on expression of oxycodone prime-induced locomotor sensitization after 2 days of withdrawal” value was “blocked; also recorded: long-lasting inhibition”. The “effect on oxycodone-induced CPP at 15 mg/kg” value with Long-Evans rats (rats, 15 mg/kg i.p., p<0.05 compared to (Vehicle + oxycodone) group) is “significant reduction”. The “CPP produced by compound alone” value with Long-Evans rats (rats, 15 mg/kg i.p., paired with saline, 15 mg/kg) is on record as “did not produce CPP; also recorded: did not produce significant place preference”. The “effect on oxycodone-induced CPP” value with Long-Evans rats (rats, 5, 15 mg/kg i.p. 15 min before each oxycodone injection (3 mg/kg i.p.)) is “dose-dependently attenuated; also recorded: dose-dependently blocked”. Besides, the “binding to delta opioid receptor” value on delta opioid receptor was “does not bind”.
For `CCc1cccc(N2CCN(CCCCNC(=O)c3cc4ccccc4[nH]3)CC2)c1Cl` [Compound 22, N-(4-(4-(2-Chloro-3-ethylphenyl)piperazin-1-yl)butyl)-1H-indole-2-carboxamide], the “functional profile at 5HT1A” value at 5HT1A was “functional agonists”.
With `CCc1cccc(N2CCN(CCCCNC(=O)c3cc4ccccc4o3)CC2)c1Cl` [Compound 24, N-(4-(4-(2-Chloro-3-ethylphenyl)piperazin-1-yl)butyl)benzofuran-2-carboxamide], the “functional profile at 5HT1A” value at 5HT1A is reported as “functional agonists”.
For the compound `CCc1cccc(N2CCN(CC(O)CCNC(=O)c3cc4ccccc4o3)CC2)c1Cl` (stereo not shown) [Compound 25, N-(4-(4-(2-Chloro-3-ethylphenyl)piperazin-1-yl)-3-hydroxybutyl)benzofuran-2-carboxamide], the “functional profile at 5HT1A” value on 5HT1A was “functional agonists”.
As to `CCc1cc(Cl)c(OC)c(C(=O)NC[C@@H]2CCCN2CC)c1O` [Eticlopride], on D2R, the inhibition constant Ki is 0.086 nM.
For `Cc1ncoc1-c1nnc(SCCCN2C[C@@H]3C[C@]3(c3ccc(C(F)(F)F)cc3F)C2)n1C` [GSK598,809], in the series with dogs, the “blood pressure effect in the presence of cocaine” value is “significant hypertension”.
Turning to `O=C(NCC[C@@H](O)CN1CCN(c2cccc(Cl)c2Cl)CC1)c1cc2ccccc2[nH]1` [R-PG648], the metabolic stability entry in series [1] was “metabolic instability”.
Regarding `COc1ccc2c3c1O[C@H]1C(=O)CC[C@@]4(O)[C@@H](C2)N(C)CC[C@]314` [oxycodone, reference compound], in the series on C57BL/6J mice (mice, oxycodone 4 mg/kg i.p.), the “effect of oxycodone on locomotor activity” value is listed as “significant increases in locomotor activity”. In the series on Long-Evans rats (rats, oxycodone 3 mg/kg i.p. versus saline conditioning), the “CPP produced by oxycodone” value is given as “produced significant CPP”.
As for “N-(4-(4-(2-Chloro-3-ethylphenyl)piperazin-1-yl)butyl)-6-methylimidazo[2,1-b]thiazole-5-carboxamide [Compound 28]”, the Ki at human D4.4R is 143 ± 3.18 nM; at human D3R (read-out: D3R Ki ± S.E.M., full-length analogues, HEK 293), 0.941 ± 0.13 nM; at human D2LR, 4.65 ± 1.24 nM. Further, the D2R/D3R at human D3R (binding selectivity, ratio of Ki values (fold)) turned out to be 5.

The values above are taken from publication PMC5001167 (Journal of medicinal chemistry, 2016).
